Measurements as given in patent publication US20160368992A1, “A METHOD OF INCREASING GIPCR SIGNALIZATION IN THE CELLS OF A SCOLIOTIC SUBJECT” (CHU SAINTE-JUSTINE, priority 2013, published 2016).
Entries after “also recorded” stand apart in the source; their conditions may differ. Read-outs that look alike come from different tables or passages of the source.

What was measured:
GiPCR signaling [1] = assay: CDS integrated response to GiPCR ligands in MC3T3-E1 osteoblastic cell line; assay type: cell-based; conditions: for response in the presence of rOPN after siRNA transfection: MC3T3-E1, compared with untreated cells
Procedure: The functional evaluation of Gi, Gs and Gq proteins was assessed by CDS assays using osteoblasts cells derived from C57Bl/6j WT and C57Bl/6j OPN^−/− mice (bipedal and quadrupedal) using CellKey™ apparatus, as previously described (Akoume et al., 2010, and WO 2010/040234 to Moreau et al.).
MC3T3-E1 cells were used to check the effect of the knockdown of OPN and its receptors. MC3T3-E1 osteoblasts cells were transiently transfected in serum-free medium, using Lipofectamine™ RNAiMAX reagent (Invitrogen) according to the manufacturer's instructions and functional experiments were performed 48 h post transfection. The sequence of RNA oligonucleotides used for the knockdown of different genes are, ssp1 (encodes OPN) (CCACAGCCACAAGCAGUCCAGAUUA (SEQ ID NO: 9)), integrin β1 (CCUAAGUCAGCAGUAGGAACAUUAU (SEQ ID NO: 10)), integrin β3 (CCUCCAGCUCAUUGUUGAUGCUUAU (SEQ ID NO: 11)), integrin α5 (CCGAGUACCUGAUCAACCUGGUUCA (SEQ ID NO: 12)), integrin α8 (GAGAUGAAACUGAAUUCCGAGAUAA (SEQ ID NO: 13)), integrin αv (GACUGUUGAGUAUGCUCCAUGUAGA (SEQ ID NO: 14 and CD44 (GAACAAGGAGUCGUCAGAAACUCCA (SEQ ID NO: 15)). Two other siRNAs against integrin α5 were tested (UCCACCAUGUCUAUGAGCUCAUCAA (SEQ ID NO:16) and UCAGGAGCAGAUUGCAGAAUCUUAU (SEQ ID NO:17)).
To further investigate the role of OPN in Gi protein-mediated receptor signaling, several lines of experiments were performed using MC3T3-E1 osteoblastic cell line. Since these cells express OPN, was first examined whether depletion of OPN by siRNA influences the capacity of GiPCR ligands to induce cell signaling as measured by CDS in MC3T3-E1 cells. […] Similar results were obtained when cells were stimulated with oxymethazolin. […] To confirm this hypothesis, cells were treated with exogenous recombinant OPN (rOPN) prior to DAMGO and oxymethazolin stimulation.

Gi1, Gi2, Gi3 proteins = assay: Immunoprecipitation/Western blot: phosphorylation of Gi proteins in MC3T3-E1 cells; assay type: cell-based; conditions: MC3T3-E1 treated with rOPN in presence of kinase inhibitor
Procedure: Given that the defective GiPCR signaling associated with idiopathic scoliosis has causatively been related to increased phosphorylation of Gi proteins (Moreau et al., 2004), it was of interest to examined whether OPN influences the phosphorylation status of Gi proteins. Accordingly, MC3T3-E1 cells were treated with rOPN, then cell lysates were immunoprecipitated with antibodies against Gi1, Gi2 or Gi3 protein isoforms, and the phosphorylation level was examined by Western blot using anti-phospho serine/threonine or anti-tyrosine antibodies. […] However, band density was higher in OPN-treated cells.
To support the involvement of α5β1 integrin in this process, cells were pre-treated with antibody against α5β1 integrin prior to rOPN treatment.
Cell extracts prepared from MC3T3-E1 that had been treated with rOPN in the presence or absence of an inhibitor specific for each kinase were subjected to immunoprecipitation and Western blot analysis. […] However, both serine and tyrosine phosphorylation were attenuated by inhibitors of FAK (FAK inhibitor-14), Scr (PP2), CaMKII (KN93), PI3K (wortmannin-data not shown), MEK (PD98059), ERK1/2 (FR180204), JNK (SP60125) and P38 (SB203580).

GiPCR signaling [2] = assay: CDS (CellKey) functional evaluation of Gi protein-mediated receptor signaling in primary mouse osteoblasts; assay type: cell-based, mice
[3] = target: RGD-dependent integrins expressed in osteoblasts; assay: cell-based or functional assay
GsPCR signaling = assay: CDS response to GsPCR stimulation (isoproterenol, desmopressin) in MC3T3-E1 cells; assay type: cell-based; conditions: rOPN in combination with Src inhibitor; isoproterenol, similar with desmopressin
Source text: Taken into account these considerations and having observed that genetic deletion of OPN inversely influenced response to Gi and Gs stimulation (FIG. 1), it was of interest to examine the effect of OPN on the functional and phosphorylation status of Gs protein and on its interaction with receptors. For this purpose, cells were subjected to isoproterenol and desmopressin in the presence of rOPN or PBS. As expected, response to isoproterenol was higher in rOPN than in PBS-treated cells.
Assuming that inhibition of Gi protein and phosphorylation of Gs protein are responsible for the increased GsPCR signaling associated with rOPN, the next experiments aimed to determine the contribution of each parameter. For this purpose, cells were treated with PTX to mimic disruption action of rOPN and compared to cells treated with rOPN alone or in combination with Src inhibitor (PP2) to prevent tyrosine phosphorylation. […] This modest difference was abolished by Src inhibitor (PP2). Similar observations were noted when cells were stimulated with desmopressin.

[4] = osteoblasts from WT and OPN-/- mice, increasing agonist concentration

Row | Molecule | level of serine phosphorylation in the Gi protein precipitates (Gi1, Gi2, Gi3 proteins) | tyrosine phosphorylation levels in the Gi protein precipitates (Gi1, Gi2, Gi3 proteins) | other results
1 | α5 siRNA: siRNA against integrin α5: CCGAGUACCUGAUCAACCUGGUUCA; two others (SEQ ID NO:16, 17) also tested (guide CCGAGUACCUGAUCAACCUGGUUCA; listed as RNA, chemistry not given here) |  |  | response in the presence of rOPN after siRNA transfection (GiPCR signaling [1]): high response
2 | O=C1c2ccccc2-c2n[nH]c3cccc1c23 [SP60125] | attenuated | attenuated | 
3 | apelin |  |  | response to GiPCR agonist (GiPCR signaling [2]): concentration-dependent increase of response
4 | COc1ccc2c(c1)c(C1=C(c3c[nH]c4ccccc34)C(=O)NC1=O)cn2CCCN(C)C [Gö6983] | attenuated | without effect | 
5 | RGD peptide |  |  | RGD concentration reversing the inhibitory effect of OPN on response to DAMGO and oxymethazolin (CDS) [3]: > 10 µg/mL
6 | CD44 siRNA: siRNA for knockdown of CD44: GAACAAGGAGUCGUCAGAAACUCCA (guide GAACAAGGAGUCGUCAGAAACUCCA; listed as RNA, chemistry not given here) |  |  | effect on the inhibitory effect of rOPN on response to DAMGO and oxymethazolin (GiPCR signaling [1]; MC3T3-E1 cells, rOPN present): did not prevent; also recorded: further aggravated the defect
7 | CC(C)(C)n1nc(-c2ccc(Cl)cc2)c2c(N)ncnc21 [PP2] | attenuated | attenuated | difference in response between rOPN-treated and PTX-treated cells (GsPCR signaling): abolished
8 | pertussis toxin [PTX] |  |  | cellular responses to each of the four tested agonists after PTX pre-treatment (GiPCR signaling [2]; osteoblasts from WT and OPN-/- mice, DAMGO, somatostatin, oxymethazolin, apelin): largely reduced
9 | OPN siRNA: siRNA for knockdown of ssp1 (encodes OPN): CCACAGCCACAAGCAGUCCAGAUUA |  |  | integrated response to DAMGO and oxymethazolin (GiPCR signaling [1]; MC3T3-E1 cells, endogenous OPN depleted or blocked, no exogenous rOPN): significantly greater
10 | β1 siRNA: siRNA against integrin β1: CCUAAGUCAGCAGUAGGAACAUUAU (guide CCUAAGUCAGCAGUAGGAACAUUAU; listed as RNA, chemistry not given here) |  |  | response in the presence of rOPN after siRNA transfection (GiPCR signaling [1]): high response
11 | Nc1cc(N)c(N)cc1N [FAK inhibitor-14] | attenuated | attenuated | 
12 | Nc1[nH]nc2nnc(-c3c(-c4ccccc4)nn4ccccc34)cc12 [FR180204] | attenuated | attenuated | 
13 | C[S+]([O-])c1ccc(-c2nc(-c3ccncc3)c(-c3ccc(F)cc3)[nH]2)cc1 (centres unmarked) [SB203580] | attenuated | attenuated | 
14 | COc1cccc(-c2cc(=O)c3ccccc3o2)c1N [PD98059] | attenuated | attenuated | 
15 | COc1ccc(S(=O)(=O)N(CCO)c2ccccc2CN(C)C/C=C/c2ccc(Cl)cc2)cc1 [KN93] | attenuated | attenuated | 
16 | C[C@@H](NC(=O)[C@@H](N)Cc1ccc(O)cc1)C(=O)NCC(=O)N(C)[C@@H](Cc1ccccc1)C(=O)NCCO [DAMGO] |  |  | response to GiPCR agonist (GiPCR signaling [2]; [4]): concentration-dependent increase of response
17 | hyaluronic acid [HA] |  |  | sensitivity of GiPCR signaling to CD44 inhibition (GiPCR signaling [2]; CD44-/- osteoblasts): does not show any sensitivity; GiPCR signaling defects (GiPCR signaling [2]; wild type osteoblasts, compared to the control): exacerbated; GiPCR signaling defect / inhibitory effect of OPN when CD44 is inhibited (GiPCR signaling [2]; wild type osteoblasts, in presence of rOPN): intensified; also recorded: exacerbate the signaling defect
18 | Cc1cc(C(C)(C)C)c(O)c(C)c1CC1=NCCN1 [oxymethazolin] |  |  | response to GiPCR agonist (GiPCR signaling [2]; [4]): concentration-dependent increase of response
